The Km is the concentration of substrate that gives half-maximal velocity.

Experiment [1] relates to CBR (luciferase derived from known click beetles). Kind of experiment: Km of CBR luciferase (luminescence kinetic analysis). Type of experiment: biochemical, click beetle. The note with it: 0.1 M Tris-HCl (pH 8.0), MgSO4, measured in a similar manner. Here is the method: (§1) A solution of 0.1 M Tris-HCl (pH 8.0) containing each of the purified luciferase, 4 mM of ATP, and 8 mM of MgSO4 was connected to the standard pump of the luminometer, and the measurements was carried out at the same time as addition of 50 μl of the solution to the well. A Luminescensor (ATTO) was used for the measurements. Measurements were repeated 3 times for each luciferin concentration.
(§2) The peak intensity of the obtained photo count value was plotted with respect to luciferin concentration S, defining the initial rate as V. The plots were subjected to curve fitting of Michaelis Menten type, thereby giving Km values. The curve fitting was performed by a nonlinear least-squares method, and the search of the parameter was performed by a Newton method.
(§3) 4-3. Measurement of Km Value with Respect to ATP
(§4) Under various ATP concentrations, the luminescent intensity of the obtained luciferase was measured. Based on the results, Km values with respect to ATP was determined.
(§5) Various […] types of ATP solutions were prepared by adding ATP to 0.1 M Tris-HCl (pH 8.0). These solutions contain ATP at final concentration of 5, 10, 20, 40, 80, 160, 320, 480, 640, 800, 1280, 1600, or 1920 μM. These ATP solutions were each injected into 96-hole in a microplate at a volume of 50 μl. […]
(§6) Table 1 also indicates Km values for known firefly luciferases, measured in a similar manner. […]

The subject of experiment [2] is CBG (luciferase derived from known click beetles). Kind of experiment: Km of CBG luciferase (luminescence kinetic analysis). As to conditions: 0.1 M Tris-HCl (pH 8.0), MgSO4, measured in a similar manner. It is filed as biochemical, click beetle. Here is the method:
as §1, §2, §3, §4, §5, §6

Experiment [3] concerns SP1 luciferase, Luciola sp1 (Malaysian firefly, genus Luciola), wild type, SEQ ID NO: 1. Kind of experiment: Km of SP1 luciferase (luminescence kinetic analysis). Type of experiment: biochemical. As to conditions: for Km: 0.1 M Tris-HCl (pH 8.0), MgSO4, Michaelis Menten curve fitting; for Km values with respect to ATP and D-luciferin, compared with known luciferases: FIG. 2, SP1 luciferase versus known luciferases.
Experimental: The measurements were carried out ten times for each sample, and the average of absorbency was used for the calculation.
Various 12 types of ATP solutions were prepared by adding ATP to 0.1 M Tris-HCl (pH 8.0). These solutions contain ATP at final concentration of 5, 10, 20, 40, 80, 160, 320, 480, 640, 800, 1280, 1600, or 1920 μM. These ATP solutions were each injected into 96-hole in a microplate at a volume of 50 μl. […] Measurement was repeated 3 times for each ATP concentration.
The peak intensities of the obtained photon count value were plotted with respect to ATP concentration S, with an initial rate V. The plots were subjected to curve fitting of Michaelis Menten type, thereby giving Km value. The curve fitting was performed by a nonlinear least-squares method, and the search of the parameter was performed by a Newton method.

The test system of experiment [4] is ELuc (luciferase derived from known click beetles). Kind of experiment: Km of ELuc luciferase (luminescence kinetic analysis). Type of experiment: biochemical, click beetle. The note with it: 0.1 M Tris-HCl (pH 8.0), MgSO4, measured in a similar manner. The method, then: as §1, §2, §3, §4, §5, §6
Experiment [5] in a line: Measurement of luminescent intensity of purified luciferase compared with Rhodamine 6G and P. pyralis luciferase. As to conditions: purified enzymes, integration of light 300 nm to 650 nm for 10 seconds. It is filed as biochemical. Here is the method:
Rhodamine 6G was dissolved into 0.1 M citric acid/0.2 M Na2HPO4 (pH 4.0) solution. The Rhodamine 6G solution was centrifuged for 1 minute at 15,000 rpm, and the supernatant was collected. The collected supernatant is diluted with 0.1 M citric acid/0.2 M Na2HPO4 solution 1000 fold, and the absorbance thereof was measured. Measurement was carried out by NanoVue (GE Healthcare). The measurement at 530 nm was repeated 5 times, and the average absorbance 0.048 was obtained. The concentration of the original Rhodamine 6G solution was calculated by using ε value of Rhodamine (1.16×10^5 mol^−1cm^−1), and the value 414 μM was obtained. The solution was diluted with 0.1 M citric acid/0.2 M Na2HPO4 solution (pH 4.0) to prepare 30 μM of a diluted solution.
Solution 1 having the following composition was prepared with use of the diluted solution.
Solution 2 was prepared by dissolving bis (2,4,6-trichlorophenyl)oxlate (TCPO) so that the final concentration thereof is 3 mM.
100 μl of solution 1 was injected for each well of 96-hole microplate. Measurement was started at the same time as addition of 50 μl of solution 2 with use of a pump, and integration value of photon counts for 10 seconds from addition of solution 2 was obtained. […]
A concentration of the obtained sample was measured by a colorimetric method, and the concentrations of P. pyralsis luciferase and SP1 luciferase were confirmed. […]

For experiment [6], the system named is HeLa cell. Kind of experiment: Luminescent intensity of SP1 luciferase expressed in a mammal cell. As to conditions: expression in HeLa cell, 1 mM D-luciferin, integration for 10 seconds. It is filed as cell-based. The method, then: SP1 luciferase was expressed in a HeLa cell, and the luminescent intensity in a cell was measured.
For introduction of SP1 luciferase gene, four types of expression vectors were prepared. Nucleic acids each containing a gene prepared by deleting recognition sequences of BamHI and EcoRI from the original SP1 luciferase gene obtained from Luciola sp1 (SEQ ID NO: 3), a gene further optimized for expression in a mammal cell (SEQ ID NO: 4), and two types of genes to which Kozak sequence was further added (SEQ ID NOS: 29 and 30) were each inserted into the multi-cloning site between BamHI and EcoRI of pcDNA3.1(+) vector (Invitrogen). Further, for comparison, a nucleic acid containing a known P. pyralis luciferase gene optimized for expression in a mammal cell was inserted into pcDNA3.1(+) vector similarly.
Five types of plasmids obtained in such a manner described above were each subjected to gene transfection to a HeLa cell by a lipofection method, and D-MEM culture medium was exchanged after 24 hours. […] The luminescent intensities shown in FIG. 4 are integration values for 10 seconds.

Experiment [7] has as its system HeLa cells. Briefly: Luminescence activity of SP1 mutants expressed in HeLa cells, corrected by hRluc internal standard. Type of experiment: cell-based. The note with it: 90 minutes after D-luciferin addition, corrected by hRluc luminescence at 10 minutes. The source says:
The fragment of the nucleic acid having the base sequence of SEQ ID NO: 35 was inserted into between SgfI site and PmeI site of a pF9A CMV hRluc-neo FlexiR vector (Promega). The fragment of the nucleic acid having the base sequence of SEQ ID NO: 36 was inserted into between SgfI site and PmeI site of another pF9A CMV hRluc-neo FlexiR vector. Two types of the obtained expression vectors were each introduced into HeLa cells, and mutants were expressed.
The luminescence intensity of two types of cells expressing mutants was detected by using a cell expressing the original SP1 luciferase without mutations as a comparison. Here, the luminescence intensity of each Hela cell was corrected using the luminescence based on hRluc gene of pF9A CMV hRluc-neo FlexiR vector (Promega) as an internal standard.

Setting [8] is: D-luciferin, read-out: Km for ATP.
The mark [9] stands for this setting: read-out: Km for D-luciferin, ATP.

Numbering of substitutions follows the chain as printed. Numbers in names are those of the source. Read-outs that look alike come from different tables or passages of the source.

As to `Nc1ncnc2c1ncn2[C@@H]1O[C@H](COP(=O)(O)OP(=O)(O)OP(=O)(O)O)[C@@H](O)[C@H]1O` [ATP], the Km in experiment [1] (setting [8]) was 47.1 µM; in experiment [2] (setting [8]), 58.4 µM; in experiment [3] (setting [8]), 195 µM; in experiment [4] (setting [8]) it was 182 µM. Further, the “Km values with respect to ATP and D-luciferin, compared with known luciferases” value in experiment [3] is “higher Km values”.
With `O=C(O)[C@H]1CSC(c2nc3ccc(O)cc3s2)=N1` [D-luciferin], the Michaelis-Menten constant (Km) turned out to be 33.3 µM in experiment [1] (setting [9]), 1.44 µM in experiment [2] (setting [9]), 44.6 µM in experiment [3] (setting [9]) and 12.7 µM in experiment [4] (setting [9]). In addition, in experiment [3], the “Km values with respect to ATP and D-luciferin, compared with known luciferases” value is listed as “higher Km values”.

B1: SP1 luciferase: luciferase of SEQ ID NO: 1 derived from Malaysian firefly Luciola sp1 (protein, listed as Luciola sp.)
chain: MNNMDDGEHIVVGPQPFYPVEEGSAGTQLLKYLKQYSKLGAIAFSNAHTKVDISYAEYLDTSVRLAQALINYGIPIDGRIALCSENCEEFYFPVLAGLYIGAGVAPTNEIYTLRELVHSLGISKPTIVFSSKKGLEKVITVQKTVTCIKTIVILDSKVDYQGYDCLETFIKKYLPAGFSVENFIPREVNRKEQVALVMNSSGSTGLPKGVQITHEGAVTRFSHARDPIYGNQVSPGTAILTIVPFHHGFGMFTNLGYLTCGYRIVMLTKFDEELFLKTLADYKCTSVILVPTLFAILSKSVLLEKYDLSNLVEIASGGAPLAKEVGEAVARRFNLPGIRQGYGLTETTSAIIITPEGDDKPGASGKIVPLFRAKVVDLDTQKTLGPNRRGEICVKGPMLMKGYVDDPVATSQIIDKDGWLHTGDIGYFDEDKHFFIVDRLKSLIKYKGYQVPPAELESVLLQHPDIFDAGVAGLPDPLAGELPGAVVVLEKGRHMTEQQVMDYVAGQVSNAKRLRGGVRFVDEVPKGLTGKIDSKAIREILKSPKAKM
With B1, the “luminescent intensity in comparison to that of P. pyralis luciferase” value in experiment [5] was 4.9 times.

B2: SP1 luciferase codon optimized: SP1 luciferase expressed from gene optimized for expression in a mammal cell (SEQ ID NO: 4) (protein, listed as Luciola sp.)
chain: B1 chain
Regarding B2, in experiment [6], the “increase of luminescent intensity in comparison to SP1 luciferase without codon optimization” value stood at 16.2 times and the “luminescent intensity in comparison to that of P. pyralis luciferase after codon optimization” value is reported as 1.7 times.

B3: SP1 mutant 2: SP1 luciferase with mutations E356R and V368A; amino acid sequence SEQ ID NO: 38 (protein)
chain: B1 chain with E356R, V368A
modifications: Luciola sp. mutant 2
On to B3, for which the “luminescence intensity in comparison to the original SP1” value in experiment [7] was “increased”.

B4: SP1 mutant 1: SP1 luciferase with mutations D438G, I532R and E356R; amino acid sequence SEQ ID NO: 37 (protein)
chain: B1 chain with E356R, D438G, I532R
modifications: Luciola sp. mutant 1
Consider B4, for which the “luminescence intensity in comparison to the original SP1” value in experiment [7] was “increased”.

The values above are taken from patent US8722376B2, “Firefly luciferase” (Olympus Corporation, priority 2011, dated 2014).
